# Results: patent publication US9089565B2, “Compositions and methods for causing neurite outgrowth” (MEDICAL RESEARCH COUNCIL, priority 2009, dated 2015)
# Biological target: T1, NgR1 (Homo sapiens, UniProt Q9BZR6)
# T1 construct: The cDNAs of NgR1 (NM 023004, Nt. 184-1543); expressed in transfected cells; host or cells: COS7
# T1 sequence (Q9BZR6 27-447): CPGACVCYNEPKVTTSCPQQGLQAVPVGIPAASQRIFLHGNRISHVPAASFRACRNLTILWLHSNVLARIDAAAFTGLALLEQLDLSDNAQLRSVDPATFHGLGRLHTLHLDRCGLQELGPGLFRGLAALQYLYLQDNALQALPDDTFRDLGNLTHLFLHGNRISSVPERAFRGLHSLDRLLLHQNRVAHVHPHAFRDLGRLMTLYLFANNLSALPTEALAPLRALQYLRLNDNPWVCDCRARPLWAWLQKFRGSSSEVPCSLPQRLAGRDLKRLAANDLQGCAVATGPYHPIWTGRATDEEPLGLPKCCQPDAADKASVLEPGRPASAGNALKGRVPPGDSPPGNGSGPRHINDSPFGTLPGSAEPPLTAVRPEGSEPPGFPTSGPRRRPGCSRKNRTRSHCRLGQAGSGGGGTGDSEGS
# Assay: Binding of Nogo-66 fragment (Nogo-GFP) to COS7 cells over-expressing NgR1
# Settings: wild type NgR1
# Protocol: FIG. 3. CK2 phosphorylates NgR1, and inhibits binding of the myelin-associated proteins to NgR1. (A) Myc-tagged wild type, 281S/A or 281S/D mutant NgR1 were over-expressed in COS7 cells. The over-expressed cells were incubated with either the combination of ATP and CK2, or NEP1-40 for 30 min at 37° C. After washing with PBS, cells were incubated with Hisx6-tagged Nogo-GFP for 3 hours at 4° C. The cells were fixed and immunofluorescence was performed with anti-Myc and anti-GFP antibodies. (B) COS7 cells over-expressing Myc-tagged wild type NgR1 were treated as described in (A). Proteins were extracted and the Myc-tagged NgR1 was immunoprecipitated with anti-Myc antibody. Co-precipitated Hisx6-tagged Nogo-GFP was detected by anti-GFP antibody. (C) Cell surface proteins in NgR1-overexpressing COS7 cells were labelled with biotin. The biotinylated proteins were fractionated and analysed by SDS-PAGE. Biotinylated NgR1-Myc was detected with anti-Myc. antibody. (D) COS7 cells over-expressing either wild type NgR1-Myc or 281S/A mutant NgR1-Myc were incubated with ã-^32P-ATP in the presence or absence of CK2. Myc-tagged proteins were immunoprecipitated and analysed with SDS-PAGE. Proteins were blotted onto a PVDF membrane and the membrane was exposed to X-ray film to detect incorporated ^32P. After autoradiography, the membrane was used for immunoblotting with anti-Myc antibody. (E and F) COS7 cells over-expressing Myc-tagged wild type, 281S/A or 281S/D mutant NgR1, were treated as described in (A). After washing with PBS, cells were incubated with either His-tagged OMgp (E) or HA-tagged MAG (F) for 3 hours at 4° C. […]
# After treatment with or without CK2, COS7 cells over-expressing wild type or mutant NgR were incubated with Hisx6 tagged Nogo-GFP (10 μg/ml), HA-MAG (50 μg/ml) or Hisx6 tagged OMgp (10 μg/ml) in PBS for 3 hours at 4° C. […] Biotinylated proteins were precipitated with streptavidin beads and were analysed by SDS-PAGE. Each sample fractionated from 5×10^6 cells was analysed by SDS-PAGE. […]
"interaction of Nogo-66 fragment with over-expressed NgR1, immunoprecipitation (ATP or CK2 alone)","binding of the Nogo-66 fragment, immunofluorescence (pre-treatment 30 min (CK2 with ATP, or NEP1-40))",Molecule
failed to inhibit the interaction,,Nc1ncnc2c1ncn2[C@@H]1O[C@H](COP(=O)(O)OP(=O)(O)OP(=O)(O)O)[C@@H](O)[C@H]1O [ATP]
,inhibited binding,"NEP1-40: a competitive inhibitor of Nogo-66 binding to NgR1 (MEDLDQSPLVSSSDSPPRPQPAFKYQFVREPEDEEEEEEE; Nogo-66 residues 1-40; UniProt Q9NQC3 1-40, looked up, fragment) [reference compound]"
